Reference: PMC9120017, “Inhibition mechanism of the chloride channel TMEM16A by the pore blocker 1PBC” (Nature Communications, 2022)
Like-named read-outs stand apart in the source and are kept apart here.

Target: T1, mouse TMEM16A mutant I640A (Mus musculus, UniProt Q8BHY3, I640A)
T1 construct: expressed in transfected cells; host or cells: HEK293T
T1 sequence (Q8BHY3 1-960 I640A): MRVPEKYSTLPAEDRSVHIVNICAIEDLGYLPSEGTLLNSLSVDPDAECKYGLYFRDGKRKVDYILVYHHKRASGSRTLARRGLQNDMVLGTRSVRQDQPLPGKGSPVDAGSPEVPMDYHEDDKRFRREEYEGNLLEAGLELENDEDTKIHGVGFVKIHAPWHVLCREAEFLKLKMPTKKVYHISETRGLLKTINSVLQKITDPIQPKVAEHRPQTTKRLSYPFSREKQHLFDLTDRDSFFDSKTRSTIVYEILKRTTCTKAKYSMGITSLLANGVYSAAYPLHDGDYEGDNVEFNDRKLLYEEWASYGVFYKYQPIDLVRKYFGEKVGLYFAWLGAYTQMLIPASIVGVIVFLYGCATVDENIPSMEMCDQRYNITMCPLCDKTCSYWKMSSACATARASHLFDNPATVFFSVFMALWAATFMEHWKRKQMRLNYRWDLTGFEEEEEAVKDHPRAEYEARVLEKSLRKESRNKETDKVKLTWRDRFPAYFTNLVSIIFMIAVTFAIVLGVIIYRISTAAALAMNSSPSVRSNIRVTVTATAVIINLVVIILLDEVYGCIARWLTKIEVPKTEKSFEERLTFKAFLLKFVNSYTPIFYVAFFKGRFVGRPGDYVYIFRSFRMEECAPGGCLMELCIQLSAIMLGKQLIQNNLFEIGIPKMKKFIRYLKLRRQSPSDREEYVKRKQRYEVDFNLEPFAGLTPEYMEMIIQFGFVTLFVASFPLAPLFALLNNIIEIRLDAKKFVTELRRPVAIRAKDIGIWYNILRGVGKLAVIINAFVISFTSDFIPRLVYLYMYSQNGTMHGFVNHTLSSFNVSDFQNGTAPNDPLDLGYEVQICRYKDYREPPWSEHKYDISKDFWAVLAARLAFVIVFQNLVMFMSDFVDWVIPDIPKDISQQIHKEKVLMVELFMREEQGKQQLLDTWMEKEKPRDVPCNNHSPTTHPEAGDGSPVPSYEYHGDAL
Test: Inside-out patch recording of 1PBC block, mutant I640A
Type: cell-based
Details: for remaining activity at 100 µM: 1PBC conc 100; for remaining activity at 100 µM / remaining activity at 3 µM / remaining activity at 10 µM / remaining activity at 30 µM: read-out: relative current in 1PBC (avr); for remaining activity at 3 µM: 1PBC conc 3; for remaining activity at 10 µM: 1PBC conc 10; for remaining activity at 30 µM: 1PBC conc 30
Experimental: HEK293T cells (ATCC CRL-1573) were maintained in Dulbecco’s modified Eagle’s medium (DMEM; Sigma-Aldrich) supplemented with 10 U ml^−1 penicillin, 0.1 mg ml^−1 streptomycin (Sigma-Aldrich), 2 mM L-glutamine (Sigma-Aldrich), and 10% FBS (Sigma-Aldrich) in a humidified atmosphere containing 5% CO2 at 37 °C. HEK293S GnTI^− cells (ATCC CRL-3022) were maintained in HyClone HyCell TransFx-H medium (GE Healthcare) supplemented with 10 U ml^−1 penicillin, 0.1 mg ml^−1 streptomycin, 4 mM L-glutamine, 0.15% poloxamer 188 (Sigma-Aldrich), and 1% FBS in an atmosphere containing 5% CO2 at 185 rpm at 37 °C. The ac splice variant of mouse TMEM16A (UniProt ID: Q8BHY3), mouse TMEM16B (UniProt ID: Q8CFW1), or mouse TMEM16F (UniProt ID: Q6P9J9) bearing a 3C cleavage site, a Venus YFP, a Myc tag, and a Streptavidin-binding peptide (SBP) downstream of the open reading frame in a modified pcDNA3.1 vector (Invitrogen) were used as described previously[21],[31]. Mutations were introduced using a modified QuikChange method[58] and were verified by sequencing.
HEK293T cells were transfected with 3–4 μg DNA per 6 cm Petri dish using the calcium phosphate co-precipitation method and were used within 24–96 h after transfection. Recordings were performed on inside-out patches excised from HEK293T cells expressing the construct of interest. Patch pipettes were pulled from borosilicate glass capillaries (O.D. 1.5 mm, I.D. 0.86 mm, Sutter Instrument) and were fire-polished with a microforge (Narishige) before use. Pipette resistance was typically 3–8 MΩ when filled with the recording solutions detailed below. Seal resistance was typically 4 GΩ or higher. Voltage-clamp recordings were made using Axopatch 200B, Digidata 1550, and Clampex 10.7 (Molecular Devices). Analog signals were filtered with the in-built 4-pole Bessel filter at 10 kHz and were digitized at 20 kHz. Solution exchange was achieved using a gravity-fed system through a theta glass pipette mounted on an ultra-fast piezo-driven stepper (Siskiyou). […] All recordings were performed at 20 °C.
A symmetrical ionic condition was used throughout. Stock solution with Ca^2+-EGTA contained 150 mM NaCl, 5.99 mM Ca(OH)2, 5 mM EGTA, and 10 mM HEPES at pH 7.40. Stock solution with EGTA contained 150 mM NaCl, 5 mM EGTA, and 10 mM HEPES at pH 7.40. Free Ca^2+ concentrations were adjusted by mixing the stock solutions at the required ratios calculated using the WEBMAXC program (http://web.stanford.edu/~cpatton/webmaxcS.htm). Patch pipettes were filled with the stock solution with Ca^2+-EGTA, which has a free Ca^2+ concentration of 1 mM. 1PBC (ChemBridge) stock was reconstituted in anhydrous DMSO (Sigma-Aldrich) at 100 mM and stored at −20 °C. Working solutions with 1PBC were prepared by serial dilution. Unless otherwise stated, experiments were performed at a saturating Ca^2+ concentration as shown in Supplementary Table 1 and the primary data were corrected for current rundown as described previously[21],[25].
Concentration-response relations, obtained from the ratio of the I-V plots before and after the application of the blocker, were fitted to the Hill equation,1 I/Imax=1/1+IC50/[blocker]^h where I/Imax is the normalized current responses, IC50 defines the concentration at which inhibition is at its half-maximum, and h is the Hill coefficient.

remaining activity at 100 µM (40 mV): 18.8%
IC50 (60 mV, 15 µM Ca2+): 23.1 µM
remaining activity at 3 µM (60 mV): 89%
remaining activity at 10 µM (60 mV): 69.4%
remaining activity at 30 µM (60 mV): 44.3%
remaining activity at 100 µM (60 mV): 17.7%
log-fold IC50 (change of mutant vs WT) (80 mV): 1.079
IC50 (80 mV, 15 µM Ca2+): 22.1 µM
remaining activity at 3 µM (80 mV): 89.4%
remaining activity at 10 µM (80 mV): 67.9%
remaining activity at 30 µM (80 mV): 43%
remaining activity at 100 µM (80 mV): 17.7%
IC50 (100 mV, 15 µM Ca2+): 23.1 µM
remaining activity at 3 µM (100 mV): 91.3%
remaining activity at 10 µM (100 mV): 69.4%
remaining activity at 30 µM (100 mV): 43.1%
remaining activity at 100 µM (100 mV): 18%
IC50 (120 mV, 15 µM Ca2+): 24.9 µM
remaining activity at 3 µM (120 mV): 93.7%
remaining activity at 10 µM (120 mV): 71.5%
remaining activity at 30 µM (120 mV): 45%
remaining activity at 100 µM (120 mV): 17.7%
IC50 (140 mV, 15 µM Ca2+): 28.2 µM
remaining activity at 3 µM (140 mV): 96.5%
remaining activity at 10 µM (140 mV): 75.3%
remaining activity at 30 µM (140 mV): 47.6%
remaining activity at 100 µM (140 mV): 18.5%
IC50 (-20 mV, 15 µM Ca2+): 36.1 µM
remaining activity at 3 µM (-20 mV): 91.2%
remaining activity at 10 µM (-20 mV): 78.5%
remaining activity at 30 µM (-20 mV): 55.5%
remaining activity at 100 µM (-20 mV): 25.8%
IC50 (-40 mV, 15 µM Ca2+): 41.5 µM
remaining activity at 3 µM (-40 mV): 91.5%
remaining activity at 10 µM (-40 mV): 80.9%
remaining activity at 30 µM (-40 mV): 58.8%
remaining activity at 100 µM (-40 mV): 28.8%
IC50 (-60 mV, 15 µM Ca2+): 46.6 µM
remaining activity at 3 µM (-60 mV): 91.7%
remaining activity at 10 µM (-60 mV): 83.4%
remaining activity at 30 µM (-60 mV): 61.1%
remaining activity at 100 µM (-60 mV): 31.4%
IC50 (-80 mV, 15 µM Ca2+): 53 µM
remaining activity at 3 µM (-80 mV): 92.4%
remaining activity at 10 µM (-80 mV): 84.6%
remaining activity at 30 µM (-80 mV): 64.1%
remaining activity at 100 µM (-80 mV): 34.6%
IC50 (-100 mV, 15 µM Ca2+): 60.2 µM
remaining activity at 3 µM (-100 mV): 93.4%
remaining activity at 10 µM (-100 mV): 86.7%
remaining activity at 30 µM (-100 mV): 66.4%
remaining activity at 100 µM (-100 mV): 37.8%
IC50 (-120 mV, 15 µM Ca2+): 66 µM
remaining activity at 3 µM (-120 mV): 93.4%
remaining activity at 10 µM (-120 mV): 87.4%
remaining activity at 30 µM (-120 mV): 68.3%
remaining activity at 100 µM (-120 mV): 40.2%
IC50 (-140 mV, 15 µM Ca2+): 73.5 µM
remaining activity at 3 µM (-140 mV): 93.7%
remaining activity at 10 µM (-140 mV): 88.3%
remaining activity at 30 µM (-140 mV): 69.4%
remaining activity at 100 µM (-140 mV): 44%
IC50 (I640A, V 0 mV): 31.5 µM
IC50 (I640A, V 20 mV): 27.5 µM
IC50 (I640A, V 40 mV): 24.7 µM
IC50 (I640A, V 60 mV): 23.1 µM
IC50 (I640A, V 80 mV): 22.1 µM
IC50 (I640A, V 100 mV): 23.1 µM
IC50 (I640A, V 120 mV): 24.9 µM
IC50 (I640A, V 140 mV): 28.2 µM
IC50 (I640A, V -20 mV): 36.1 µM
IC50 (I640A, V -40 mV): 41.5 µM
IC50 (I640A, V -60 mV): 46.6 µM
IC50 (I640A, V -80 mV): 53 µM
IC50 (I640A, V -100 mV): 60.2 µM
IC50 (I640A, V -120 mV): 66 µM
IC50 (I640A, V -140 mV): 73.5 µM
Structure (SMILES): N#Cc1c(C(F)(F)F)cc(O)n2c1nc1ccccc12 [1PBC]
